The kinase profiling compilation of Christmann-Franck et al. (2016)

Assays:
Test in all cases: radiometric filter-binding kinase assay
[1] = target: PIM1 (human) (UniProt P11309)
[2] = target: MELK (human) (UniProt Q14680)
[3] = target: FLT1 (human) (UniProt P17948)
[4] = target: CHEK2 (human) (UniProt O96017)
[5] = tested on: SGK1 (human), O00141 [S422D]
[6] = target: IKBKE (human) (UniProt Q14164)
[7] = target: PIM3 (human) (UniProt Q86V86)
[8] = target: MAP3K7 TAB1 (human) (UniProt Q15750+O43318); details: compound 10.0 µM
[9] = target: MAPKAPK2 (human) (UniProt P49137)
[10] = target: MYLK (human) (UniProt Q15746)
[11] = target: EPHB4 (human) (UniProt P54760)
[12] = target: TAOK1 (human) (UniProt Q7L7X3)
[13] = target: IRAK4 (human) (UniProt Q9NWZ3)
[14] = target: MAPK12 (human) (UniProt P53778)
[15] = target: EPHB2 (human) (UniProt P29323)
[16] = target: MAPK14 (human) (UniProt Q16539)
[17] = tested on: RPS6KB1 (human), P23443 [T412E]
[18] = target: HIPK2 (human) (UniProt Q9H2X6)
[19] = target: NEK2 (human) (UniProt P51955)
[20] = target: MARK2 (human) (UniProt Q7KZI7)
[21] = target: MARK1 (human) (UniProt Q9P0L2)
[22] = target: STK3 (human) (UniProt Q13188)
[23] = target: RPS6KA1 KD1 KD2 (human) (UniProt Q15418)
[24] = target: EPHA2 (human) (UniProt P29317)
[25] = target: DAPK1 (human) (UniProt P53355)
[26] = target: EPHB1 (human) (UniProt P54762)
[27] = target: MAPKAPK5 (human) (UniProt Q8IW41)
[28] = target: DYRK2 (human) (UniProt Q92630)
[29] = target: DYRK3 (human) (UniProt O43781)
[30] = target: PKN2 (human) (UniProt Q16513)
[31] = target: PRKCA (human) (UniProt P17252)
[32] = target: TTK (human) (UniProt P33981)
[33] = tested on: ROCK2 (rat); details: accession and sequence are those of the human protein
[34] = target: CLK2 (human) (UniProt P49760)
[35] = target: GCK (human) (UniProt Q12851)

Chain of RPS6KA1 KD1 KD2 (human) (Q15418 whole entry, looked up): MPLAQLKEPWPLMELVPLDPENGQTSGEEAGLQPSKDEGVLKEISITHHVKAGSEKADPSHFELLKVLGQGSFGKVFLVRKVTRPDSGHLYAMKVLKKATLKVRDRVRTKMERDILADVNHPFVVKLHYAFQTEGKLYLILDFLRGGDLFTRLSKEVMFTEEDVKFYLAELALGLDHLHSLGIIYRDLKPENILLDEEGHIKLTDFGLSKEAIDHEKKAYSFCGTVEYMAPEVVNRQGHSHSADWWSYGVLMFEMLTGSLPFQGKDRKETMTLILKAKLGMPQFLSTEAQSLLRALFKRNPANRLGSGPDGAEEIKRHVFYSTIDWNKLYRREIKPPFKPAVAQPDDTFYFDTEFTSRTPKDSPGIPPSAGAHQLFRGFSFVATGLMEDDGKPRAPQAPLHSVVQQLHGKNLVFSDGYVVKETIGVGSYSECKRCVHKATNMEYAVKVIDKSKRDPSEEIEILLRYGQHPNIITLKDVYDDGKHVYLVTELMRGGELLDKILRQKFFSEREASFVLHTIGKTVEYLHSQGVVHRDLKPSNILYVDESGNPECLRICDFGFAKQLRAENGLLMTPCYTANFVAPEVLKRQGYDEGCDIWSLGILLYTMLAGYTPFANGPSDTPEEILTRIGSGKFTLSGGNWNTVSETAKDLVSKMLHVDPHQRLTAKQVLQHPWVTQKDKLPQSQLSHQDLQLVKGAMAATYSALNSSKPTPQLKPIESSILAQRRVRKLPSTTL
Chain of CHEK2 (human) (O96017 whole entry, looked up): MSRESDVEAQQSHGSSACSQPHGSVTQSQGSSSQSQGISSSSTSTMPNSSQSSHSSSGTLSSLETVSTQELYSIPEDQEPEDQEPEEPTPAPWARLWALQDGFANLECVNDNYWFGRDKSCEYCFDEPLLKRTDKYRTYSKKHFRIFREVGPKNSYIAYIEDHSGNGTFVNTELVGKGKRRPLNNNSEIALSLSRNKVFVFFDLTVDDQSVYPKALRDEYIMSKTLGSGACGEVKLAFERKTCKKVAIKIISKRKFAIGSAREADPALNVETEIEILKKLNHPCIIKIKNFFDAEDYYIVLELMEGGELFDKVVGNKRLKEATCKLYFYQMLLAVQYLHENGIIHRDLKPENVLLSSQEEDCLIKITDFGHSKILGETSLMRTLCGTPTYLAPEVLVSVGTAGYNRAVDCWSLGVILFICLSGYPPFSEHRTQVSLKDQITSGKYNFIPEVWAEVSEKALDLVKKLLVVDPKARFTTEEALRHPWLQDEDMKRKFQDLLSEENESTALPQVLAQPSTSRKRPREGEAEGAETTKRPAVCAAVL
Chain of STK3 (human) (Q13188 whole entry, looked up): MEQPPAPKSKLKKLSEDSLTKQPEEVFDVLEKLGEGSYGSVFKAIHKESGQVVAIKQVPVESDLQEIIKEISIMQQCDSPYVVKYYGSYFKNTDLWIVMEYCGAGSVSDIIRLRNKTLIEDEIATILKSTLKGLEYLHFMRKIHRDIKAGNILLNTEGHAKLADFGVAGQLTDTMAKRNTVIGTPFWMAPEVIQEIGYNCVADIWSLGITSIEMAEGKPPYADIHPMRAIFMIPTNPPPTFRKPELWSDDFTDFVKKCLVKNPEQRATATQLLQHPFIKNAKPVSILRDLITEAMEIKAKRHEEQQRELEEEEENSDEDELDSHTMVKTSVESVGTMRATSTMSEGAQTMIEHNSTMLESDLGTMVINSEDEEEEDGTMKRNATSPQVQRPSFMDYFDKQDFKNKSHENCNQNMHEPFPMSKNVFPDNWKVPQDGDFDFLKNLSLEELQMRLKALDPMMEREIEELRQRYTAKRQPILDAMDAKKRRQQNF
Chain of MAPK12 (human) (P53778 whole entry, looked up): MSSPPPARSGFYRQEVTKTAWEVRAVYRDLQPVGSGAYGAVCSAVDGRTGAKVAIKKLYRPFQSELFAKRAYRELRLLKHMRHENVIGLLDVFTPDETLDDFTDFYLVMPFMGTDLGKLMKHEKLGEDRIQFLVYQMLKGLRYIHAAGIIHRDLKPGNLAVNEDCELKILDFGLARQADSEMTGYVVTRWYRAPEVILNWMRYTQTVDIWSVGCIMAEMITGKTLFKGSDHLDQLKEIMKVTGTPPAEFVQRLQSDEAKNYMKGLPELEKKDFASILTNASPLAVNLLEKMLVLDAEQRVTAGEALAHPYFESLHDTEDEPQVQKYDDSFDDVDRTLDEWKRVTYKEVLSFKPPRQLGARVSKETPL
Chain of RPS6KB1 (human), P23443 [T412E] (P23443 whole entry T412E, looked up): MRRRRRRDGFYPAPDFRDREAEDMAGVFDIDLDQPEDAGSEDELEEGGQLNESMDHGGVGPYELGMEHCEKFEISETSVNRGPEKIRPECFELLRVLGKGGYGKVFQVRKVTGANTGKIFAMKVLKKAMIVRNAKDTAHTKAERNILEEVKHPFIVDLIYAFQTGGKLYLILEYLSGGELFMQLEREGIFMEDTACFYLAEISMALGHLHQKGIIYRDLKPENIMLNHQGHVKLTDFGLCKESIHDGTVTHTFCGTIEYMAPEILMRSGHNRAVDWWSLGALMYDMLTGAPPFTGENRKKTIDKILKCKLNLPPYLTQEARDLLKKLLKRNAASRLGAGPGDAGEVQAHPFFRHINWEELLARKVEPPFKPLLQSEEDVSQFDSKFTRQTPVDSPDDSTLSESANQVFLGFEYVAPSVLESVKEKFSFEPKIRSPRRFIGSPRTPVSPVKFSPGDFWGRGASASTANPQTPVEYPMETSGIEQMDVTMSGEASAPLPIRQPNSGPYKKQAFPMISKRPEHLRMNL
Chain of MAPKAPK2 (human) (P49137 whole entry, looked up): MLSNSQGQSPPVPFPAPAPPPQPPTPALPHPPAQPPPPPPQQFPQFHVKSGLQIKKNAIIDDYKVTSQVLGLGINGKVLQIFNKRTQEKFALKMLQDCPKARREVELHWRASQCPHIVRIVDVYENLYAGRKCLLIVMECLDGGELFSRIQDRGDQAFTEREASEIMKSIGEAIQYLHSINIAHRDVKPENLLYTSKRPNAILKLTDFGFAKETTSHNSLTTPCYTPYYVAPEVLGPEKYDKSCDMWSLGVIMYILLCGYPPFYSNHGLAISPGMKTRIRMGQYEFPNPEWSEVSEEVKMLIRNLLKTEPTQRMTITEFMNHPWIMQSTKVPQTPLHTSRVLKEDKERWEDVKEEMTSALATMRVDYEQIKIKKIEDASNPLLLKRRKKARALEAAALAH
Chain of MAPKAPK5 (human) (Q8IW41 whole entry, looked up): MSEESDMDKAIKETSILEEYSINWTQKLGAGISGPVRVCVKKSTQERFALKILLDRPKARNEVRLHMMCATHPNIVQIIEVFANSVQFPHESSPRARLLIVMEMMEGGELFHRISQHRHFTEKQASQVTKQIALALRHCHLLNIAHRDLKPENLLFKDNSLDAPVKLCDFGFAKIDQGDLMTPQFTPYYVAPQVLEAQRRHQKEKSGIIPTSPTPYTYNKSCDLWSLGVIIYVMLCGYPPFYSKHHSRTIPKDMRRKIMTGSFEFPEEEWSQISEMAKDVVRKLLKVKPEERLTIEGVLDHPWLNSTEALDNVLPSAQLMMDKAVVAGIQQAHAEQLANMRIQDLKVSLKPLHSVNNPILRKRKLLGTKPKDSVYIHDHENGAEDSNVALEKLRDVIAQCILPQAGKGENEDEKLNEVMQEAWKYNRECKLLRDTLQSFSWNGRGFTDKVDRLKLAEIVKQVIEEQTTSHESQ
Chain of NEK2 (human) (P51955 whole entry, looked up): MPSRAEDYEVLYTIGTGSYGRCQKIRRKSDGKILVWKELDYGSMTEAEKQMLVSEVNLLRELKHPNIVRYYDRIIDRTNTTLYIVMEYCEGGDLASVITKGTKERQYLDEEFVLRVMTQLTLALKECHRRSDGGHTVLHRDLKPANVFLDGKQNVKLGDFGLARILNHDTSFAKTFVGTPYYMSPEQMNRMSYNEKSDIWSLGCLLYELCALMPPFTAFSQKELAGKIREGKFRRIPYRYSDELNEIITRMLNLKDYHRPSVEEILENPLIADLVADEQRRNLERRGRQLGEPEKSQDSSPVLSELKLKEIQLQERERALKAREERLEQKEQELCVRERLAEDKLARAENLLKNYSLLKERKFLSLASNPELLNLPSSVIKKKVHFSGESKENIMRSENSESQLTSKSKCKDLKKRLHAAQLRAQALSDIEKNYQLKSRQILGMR

- residual activity ([1]; compound 10.0 µM): 98%
- residual activity ([1]; compound 50.0 µM): 100%
- residual activity ([2]; compound 10.0 µM): 97%
- residual activity ([2]; compound 50.0 µM): 92%
- residual activity ([3]; compound 10.0 µM): 84%
- residual activity ([3]; compound 50.0 µM): 89%
- residual activity ([4]; compound 1.0 µM): 83%
- residual activity ([4]; compound 10.0 µM): 97%
- residual activity ([4]; compound 50.0 µM): 95%
- residual activity ([5]; compound 1.0 µM): 89%
- residual activity ([5]; compound 10.0 µM): 98%
- residual activity ([6]; compound 10.0 µM): 101%
- residual activity ([6]; compound 50.0 µM): 81%
- residual activity ([7]; compound 10.0 µM): 97%
- residual activity ([7]; compound 50.0 µM): 95%
- residual activity [8]: 92%
- residual activity ([9]; compound 1.0 µM): 85%
- residual activity ([9]; compound 10.0 µM): 102%
- residual activity ([9]; compound 50.0 µM): 99%
- residual activity ([10]; compound 1.0 µM): 98%
- residual activity ([10]; compound 50.0 µM): 96%
- residual activity ([11]; compound 10.0 µM): 98%
- residual activity ([11]; compound 50.0 µM): 97%
- residual activity ([12]; compound 10.0 µM): 93%
- residual activity ([12]; compound 50.0 µM): 89%
- residual activity ([13]; compound 10.0 µM): 94%
- residual activity ([13]; compound 50.0 µM): 99%
- residual activity ([14]; compound 1.0 µM): 93%
- residual activity ([14]; compound 10.0 µM): 95%
- residual activity ([14]; compound 50.0 µM): 89%
- residual activity ([15]; compound 10.0 µM): 106%
- residual activity ([15]; compound 50.0 µM): 126%
- residual activity ([16]; compound 1.0 µM): 82%
- residual activity ([16]; compound 10.0 µM): 107%
- residual activity ([17]; compound 1.0 µM): 81%
- residual activity ([17]; compound 10.0 µM): 84%
- residual activity ([17]; compound 50.0 µM): 91%
- residual activity ([18]; compound 10.0 µM): 86%
- residual activity ([18]; compound 50.0 µM): 92%
- residual activity ([19]; compound 1.0 µM): 79%
- residual activity ([19]; compound 10.0 µM): 93%
- residual activity ([19]; compound 50.0 µM): 91%
- residual activity ([20]; compound 10.0 µM): 104%
- residual activity ([20]; compound 50.0 µM): 90%
- residual activity ([21]; compound 10.0 µM): 97%
- residual activity ([21]; compound 50.0 µM): 101%
- residual activity ([22]; compound 1.0 µM): 90%
- residual activity ([22]; compound 10.0 µM): 88%
- residual activity ([22]; compound 50.0 µM): 87%
- residual activity ([23]; compound 1.0 µM): 99%
- residual activity ([23]; compound 10.0 µM): 100%
- residual activity ([23]; compound 50.0 µM): 96%
- residual activity ([24]; compound 10.0 µM): 95%
- residual activity ([24]; compound 50.0 µM): 99%
- residual activity ([25]; compound 10.0 µM): 97%
- residual activity ([25]; compound 50.0 µM): 94%
- residual activity ([26]; compound 10.0 µM): 107%
- residual activity ([26]; compound 50.0 µM): 106%
- residual activity ([27]; compound 1.0 µM): 92%
- residual activity ([27]; compound 10.0 µM): 91%
- residual activity ([27]; compound 50.0 µM): 88%
- residual activity ([28]; compound 10.0 µM): 102%
- residual activity ([28]; compound 50.0 µM): 101%
- residual activity ([29]; compound 10.0 µM): 87%
- residual activity ([29]; compound 50.0 µM): 91%
- residual activity ([30]; compound 1.0 µM): 83%
- residual activity ([30]; compound 10.0 µM): 106%
- residual activity ([31]; compound 1.0 µM): 88%
- residual activity ([31]; compound 10.0 µM): 91%
- residual activity ([31]; compound 50.0 µM): 95%
- residual activity ([32]; compound 10.0 µM): 101%
- residual activity ([32]; compound 50.0 µM): 82%
- residual activity ([33]; compound 1.0 µM): 84%
- residual activity ([33]; compound 10.0 µM): 97%
- residual activity ([33]; compound 50.0 µM): 89%
- residual activity ([34]; compound 10.0 µM): 90%
- residual activity ([34]; compound 50.0 µM): 86%
- residual activity ([35]; compound 10.0 µM): 87%
- residual activity ([35]; compound 50.0 µM): 98%
SMILES: CCCC(CCC)C(=O)O
